From the supplement of paper PMC10307832

Experiments:
Assay in all cases: relative viability (nuclei count vs DMSO), 5 days (fraction); higher = more cells survive
Tanzisertib + AZD7762 = compound: O[C@H]1CC[C@H](Nc2ncc3nc(Nc4c(F)cc(F)cc4F)n([C@H]4CCOC4)c3n2)CC1 [Tanzisertib] + NC(=O)Nc1cc(-c2cccc(F)c2)sc1C(=O)N[C@H]1CCCNC1 [AZD7762] (partner 0.2 µM)
In short: (§1)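 After 5 days of treatment, lung cancer cells in 1536-well plates were fixed and stained in a single step (final 0.05% Triton X-100, 1% formaldehyde, 1 ug/ml Hoechst) and their nuclei counted on 4× images. Treatment had been applied by pin tool the day after seeding as one drug alone or as a fixed anchor-drug dose with five library-drug doses (not always all listed) in √10 steps. Relative viability is the nuclei count of treated wells divided by that of vehicle wells, and values are medians of duplicate plates.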

[1] = compound: C[C@@H](N)c1ccc(C(=O)Nc2ccnc3[nH]ccc23)cc1 + CC(=O)Nc1cccc(-n2c(=O)n(C3CC3)c(=O)c3c(Nc4ccc(I)cc4F)n(C)c(=O)c(C)c32)c1 [Trametinib] (partner 0.02 µM)
In short: as §1

[2] = compound: C1CNCCC1C2=CC(=NN2)C3=CC=NC=C3 + CC(=O)Nc1cccc(-n2c(=O)n(C3CC3)c(=O)c3c(Nc4ccc(I)cc4F)n(C)c(=O)c(C)c32)c1 [Trametinib] (partner 0.02 µM)
In short: as §1

Tanzisertib + Olaparib = compound: O[C@H]1CC[C@H](Nc2ncc3nc(Nc4c(F)cc(F)cc4F)n([C@H]4CCOC4)c3n2)CC1 [Tanzisertib] + O=C(c1cc(Cc2n[nH]c(=O)c3ccccc23)ccc1F)N1CCN(C(=O)C2CC2)CC1 [Olaparib] (partner 8 µM)
In short: as §1

Cell Line	relative viability (Tanzisertib + AZD7762; first compound 0.08 µM)	relative viability (Tanzisertib + AZD7762; first compound 0.253 µM)	relative viability (Tanzisertib + AZD7762; first compound 0.8 µM)	relative viability (Tanzisertib + AZD7762; first compound 2.53 µM)	relative viability (Tanzisertib + AZD7762; first compound 8 µM)	relative viability ([1]; first compound 0.04 µM)	relative viability ([1]; first compound 0.1265 µM)	relative viability ([1]; first compound 0.4 µM)	relative viability ([1]; first compound 1.265 µM)	relative viability ([1]; first compound 4 µM)	relative viability ([2]; first compound 0.08 µM)	relative viability ([2]; first compound 0.8 µM)	relative viability ([2]; first compound 2.53 µM)	relative viability ([2]; first compound 8 µM)	relative viability (Tanzisertib + Olaparib; first compound 0.08 µM)	relative viability (Tanzisertib + Olaparib; first compound 0.253 µM)	relative viability (Tanzisertib + Olaparib; first compound 0.8 µM)	relative viability (Tanzisertib + Olaparib; first compound 2.53 µM)	relative viability (Tanzisertib + Olaparib; first compound 8 µM)
NCI-H1734	0.596	0.532	0.558	0.534	0.526	0.735	0.698	0.708	0.668	0.582	0.531	0.708	0.668	0.667	0.66	0.626	0.604	0.671	0.687
NCI-H1755	0.462	0.474	0.441	0.399	0.384	0.768	0.752	0.761	0.707	0.644	0.744	0.833	0.755	0.739	0.906	0.868	0.889	0.855	0.865
NCI-H1792	0.842	0.693	0.742	0.697	0.523	0.5	0.465	0.597	0.698	0.324	0.428	0.487	0.539	0.438	0.813	0.572	0.498	0.345	0.436
NCI-H1793	0.643	0.574	0.462	0.406	0.397	0.46	0.442	0.452		0.61	0.459		0.414	0.406	0.876	0.807	0.873	0.77	0.592
NCI-H1915	0.716	0.675	0.709	0.714	0.653		0.299	0.298		0.239	0.289	0.298	0.3	0.299	0.29	0.271	0.244	0.245	0.25
NCI-H1944	0.526	0.507	0.52	0.422	0.458	0.479	0.412	0.467	0.503	0.402	0.333	0.376	0.389	0.411	0.462	0.412	0.377	0.44	0.385
NCI-H1975	0.697	0.794	0.752	0.653	0.54	0.286	0.4	0.449	0.194	0.233	0.342	0.249	0.356	0.394	0.898	0.836	0.807	0.818	0.752
NCI-H1993	1.21	0.867	0.731	0.68	0.823	0.607	0.519		0.569	0.511	0.512	0.597	0.509	0.536	0.985	0.928	1.17	1.04	0.766
NCI-H2085		0.974	1.02	0.981	1.02	0.653	0.702	0.652	0.726	0.583	0.623		0.52	0.71		0.763	0.745	0.803	0.76
